# Assay results published in patent publication US6914045B2, “Glycopeptide antibiotics” (Wyeth Holdings Corporation, priority 2001, dated 2005).
# Numbered stars: 1 amine (or outer) side, 2 acyl side, 3 side chain; on linkers, the order of the positions; unused ones are H or OH. Square brackets hold non-standard residues; d marks the D form. Peptide text beside a SMILES is read from it. * marks the point of attachment. ξ: configuration not given here. X1 = N=C1NCC(C(O)C(N[*:1])C(=O)[*:2])N1C1OC(CO)C(O)C(O)C1O; ξEnduracididine(βξ-OH,4'ξ) = N=C1NCC(C(O)C(N)C(=O)O)N1; X2 = OCC1OC(OC2C(CO)OC(*)C(O)C2O)C(O)C(O)C1O; Cha = N[CH](CC1CCCCC1)C(=O)O
# How the values were obtained:
# [1] = anatomic pathology (histopathology of heart and kidney) in mice; type: in vivo; details: CD-1 mice, 20 mg/kg intravenously daily for 9 days, necropsy day 10, microscopic histopathology
# Description: Samples of tissues from necropsied mice were formalin-fixed, paraffin-embedded, sectioned, stained with hematoxylin and eosin, and examined microscopically. Histopathologic findings were recorded. These findings were subjectively graded on a scale corresponding to slight, mild, moderate, marked and severe as compared to untreated controls.
# [2] = clinical pathology (serum clinical chemistry) in mice; type: in vivo; details: CD-1 mice, 20 mg/kg intravenously daily for 9 days, sera day 10
# Description: 20-day-old CD-1 mice were divided into a vehicle control group (5 mice) and a treatment group (5 mice). Samples of glycopeptide antibiotics were administered at 20 mg/kg intravenously daily for 9 days.
# Staphylococcus sp. = assay: in vitro antibacterial evaluation, MIC by broth dilution; type: cell-based; details: broth dilution, 18 hours at 35° C.
# Procedure, shortened: (§1)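 Test organisms, which included recent clinical isolates resistant to methicillin, penicillin and/or vancomycin, were inoculated at 5×10^5 CFU/mL into Muller-Hinton II […] containing antibiotic at 64-0.06 μg/mL. Minimum inhibitory concentrations were then read as the lowest level inhibiting growth.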
# Streptococcus sp. = assay: as above; type: cell-based; details: broth dilution, 18 hours at 35° C.
# Procedure, shortened: as §1
# Enterococcus sp. = assay: as above; type: cell-based; details: broth dilution, 18 hours at 35° C.
# Procedure, shortened: as §1
# Escherichia coli = assay: as above; type: cell-based; details: 18 hours at 35° C.
# Procedure, shortened: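 MIC = lowest antibiotic concentration preventing visible growth; inoculum 5×10^5 CFU/mL; drug range 64-0.06 μg/mL; Muller-Hinton II […]; NCCLS M7-A2 guidance.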
structure (smiles),measurement,setting,value
"N=C1NCC(C(O)C2NC(=O)C(Cc3ccc(OC4OC(CO)C(OC5OC(CO)C(O)C(O)C5O)C(O)C4O)cc3)NC(=O)C(CC3CCCCC3)NC(=O)CNC(=O)C(CO)NC(=O)C(C(O)C3CNC(=N)N3C3OC(CO)C(O)C(O)C3O)NC2=O)N1 (stereo not drawn) [Example 263, Cyclo[3-cyclohexylalanyl-O-(4-O-hexopyranosylhexopyranosyl)tyrosyl-3-(2-iminoimidazolidin-4-yl)seryl-3-(3-hexopyranosyl-2-iminoimidazolidin-4-yl)serylserylglycyl]] (cyclo(G[Cha]Y(X2)[ξEnduracididine(βξ-OH,4'ξ)][X1]S); configuration not given here)","Anatomical Pathology (Day 10), Heart",[1],+
same,"Anatomical Pathology (Day 10), Kidney",[1],++
same,"Clinical Chemistry (Day 10) % of Control, Creatinine",[2],+116%
same,MIC Coagulase Negative Staphylococcus (GC 4547),Staphylococcus sp.,64 µg/mL
same,MIC Coagulase Negative Staphylococcus (GC 4548),Staphylococcus sp.,32 µg/mL
same,MIC Coagulase Negative Staphylococcus (GC 4549),Staphylococcus sp.,16 µg/mL
same,MIC Coagulase Negative Staphylococcus (GC 4551),Staphylococcus sp.,64 µg/mL
same,MIC Staphylococcus aureus (ATCC 29213),Staphylococcus sp.,64 µg/mL
same,MIC Staphylococcus aureus (GC 1131),Staphylococcus sp.,64 µg/mL
same,MIC Staphylococcus aureus (GC 4541),Staphylococcus sp.,64 µg/mL
same,MIC Staphylococcus aureus (GC 4542),Staphylococcus sp.,64 µg/mL
same,MIC Staphylococcus aureus (GC 4544),Staphylococcus sp.,>64 µg/mL
same,MIC Staphylococcus aureus (GC 4545),Staphylococcus sp.,64 µg/mL
same,MIC Staphylococcus aureus-SMITH (GC 4543),Staphylococcus sp.,32 µg/mL
same,MIC Staphylococcus haemolyticus (GC 4546),Staphylococcus sp.,32 µg/mL
same,MIC Staphylococcus aureus (ATCC 29213),Staphylococcus sp.; strain ATCC 29213,64 µg/mL
same,MIC Staphylococcus aureus (GC 1131),Staphylococcus sp.; strain GC 1131,64 µg/mL
same,MIC Staphylococcus aureus (GC 4541),Staphylococcus sp.; strain GC 4541,64 µg/mL
same,MIC Staphylococcus aureus (GC 4542),Staphylococcus sp.; strain GC 4542,64 µg/mL
same,MIC Staphylococcus aureus (GC 4544),Staphylococcus sp.; strain GC 4544,>64 µg/mL
same,MIC Staphylococcus aureus (GC 4545),Staphylococcus sp.; strain GC 4545,64 µg/mL
same,MIC Staphylococcus haemolyticus (GC 4546),Staphylococcus sp.; strain GC 4546,32 µg/mL
same,MIC Coagulase Negative Staphylococcus (GC 4547),Staphylococcus sp.; strain GC 4547,64 µg/mL
same,MIC Coagulase Negative Staphylococcus (GC 4548),Staphylococcus sp.; strain GC 4548,32 µg/mL
same,MIC Coagulase Negative Staphylococcus (GC 4549),Staphylococcus sp.; strain GC 4549,16 µg/mL
same,MIC Coagulase Negative Staphylococcus (GC 4551),Staphylococcus sp.; strain GC 4551,64 µg/mL
same,MIC Staphylococcus aureus-SMITH (GC 4543),Staphylococcus sp.; strain SMITH GC 4543,32 µg/mL
same,MIC Streptococcus agalactiae (GC 4564),Streptococcus sp.; strain GC 4564,32 µg/mL
same,MIC Streptococcus pyogenes (ID-3187),Streptococcus sp.; strain ID-3187,32 µg/mL
same,MIC Enterococcus avium (GC 4558),Enterococcus sp.; Enterococcus avium (GC 4558),>64 µg/mL
same,MIC Enterococcus faecalis (ATCC 29212),Enterococcus sp.; Enterococcus faecalis (ATCC 29212),>64 µg/mL
same,MIC Enterococcus faecalis (GC 4553),Enterococcus sp.; Enterococcus faecalis (GC 4553),>64 µg/mL
same,MIC Enterococcus faecalis (GC 4554),Enterococcus sp.; Enterococcus faecalis (GC 4554),>64 µg/mL
same,MIC Enterococcus faecium (GC 2243),Enterococcus sp.; Enterococcus faecium (GC 2243),>64 µg/mL
same,MIC Enterococcus faecium (GC 4556),Enterococcus sp.; Enterococcus faecium (GC 4556),>64 µg/mL
same,MIC Enterococcus faecium (GC 4557),Enterococcus sp.; Enterococcus faecium (GC 4557),32 µg/mL
same,MIC Enterococcus faecalis (ATCC 29212),Enterococcus sp.; strain ATCC 29212,>64 µg/mL
same,MIC Enterococcus faecalis (GC 2242),Enterococcus sp.; strain GC 2242,>64 µg/mL
same,MIC Enterococcus faecium (GC 2243),Enterococcus sp.; strain GC 2243,>64 µg/mL
same,MIC Enterococcus faecalis (GC 4552),Enterococcus sp.; strain GC 4552,>64 µg/mL
same,MIC Enterococcus faecalis (GC 4553),Enterococcus sp.; strain GC 4553,>64 µg/mL
same,MIC Enterococcus faecalis (GC 4554),Enterococcus sp.; strain GC 4554,>64 µg/mL
same,MIC Enterococcus faecium (GC 4556),Enterococcus sp.; strain GC 4556,>64 µg/mL
same,MIC Enterococcus faecium (GC 4557),Enterococcus sp.; strain GC 4557,32 µg/mL
same,MIC Enterococcus avium (GC 4558),Enterococcus sp.; strain GC 4558,>64 µg/mL
same,MIC Escherichia coli (ATCC 25922),Escherichia coli; Escherichia coli (ATCC 25922),>64 µg/mL
same,MIC Escherichia coli (GC 4559),Escherichia coli; Escherichia coli (GC 4559),>64 µg/mL
same,MIC Escherichia coli (GC 4560),Escherichia coli; Escherichia coli (GC 4560),16 µg/mL
